Calls of active or inactive are those of the source.
Legend:
[1] = target: T1, Intestinal-type alkaline phosphatase (Mus musculus, UniProt P24822); experiment: PubChem AID 488874; format: functional
[2] = target: T2, Intestinal-type alkaline phosphatase (Homo sapiens, UniProt P09923); experiment: human intestinal alkaline phosphatase activators, dose response, biochemical, luminescence, uHTS hits (AID 463120); format: functional
[3] = target: T2, Intestinal-type alkaline phosphatase; experiment: human IAP activators, dose response, biochemical, luminescent, uHTS hits, set 2 (AID 488817); format: functional;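 note: potency of activators that raise enzyme activity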
[4] = target: T3, Alkaline phosphatase, tissue-nonspecific isozyme (Homo sapiens, UniProt P05186); experiment: TNAP enzyme activators, dose response, selectivity assay for human IAP activator project, biochemical, TNAP isozyme, human IAP uHTS hits (AID 488886); format: functional;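 note: potency of compounds raising TNAP activity as a selectivity check on IAP activators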
T3 sequence (P05186 whole entry): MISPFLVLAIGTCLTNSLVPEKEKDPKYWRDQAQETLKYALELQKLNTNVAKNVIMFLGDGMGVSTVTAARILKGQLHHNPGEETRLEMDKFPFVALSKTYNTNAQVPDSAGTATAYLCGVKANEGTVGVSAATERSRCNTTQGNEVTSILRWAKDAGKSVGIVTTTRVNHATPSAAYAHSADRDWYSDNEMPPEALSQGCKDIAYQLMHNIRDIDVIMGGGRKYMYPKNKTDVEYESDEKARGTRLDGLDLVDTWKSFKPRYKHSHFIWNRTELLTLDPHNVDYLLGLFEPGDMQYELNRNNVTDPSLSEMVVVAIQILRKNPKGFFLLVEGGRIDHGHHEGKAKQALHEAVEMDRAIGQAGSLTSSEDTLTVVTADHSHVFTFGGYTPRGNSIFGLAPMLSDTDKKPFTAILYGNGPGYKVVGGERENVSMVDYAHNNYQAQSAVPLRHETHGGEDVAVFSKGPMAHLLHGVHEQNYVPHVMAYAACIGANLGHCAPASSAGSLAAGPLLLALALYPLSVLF

[5] = target: Sphingosine 1-phosphate receptor 1 (Homo sapiens, UniProt P21453); experiment: Fluorescence-based counterscreen assay for S1P4 agonists: Cell-based dose response high throughput screening assay to identify agonists of the Sphingosine 1-Phosphate Receptor 1 (S1P1). [Related pubchem assays (depositor defined):AID1509, AID1523, AID1801, AID463107, AID463118, AID463119, AID463122, AID463123, AID463129, AID463225, AID504400, AID504460]; format: functional
Sequence of Sphingosine 1-phosphate receptor 1 (P21453 whole entry): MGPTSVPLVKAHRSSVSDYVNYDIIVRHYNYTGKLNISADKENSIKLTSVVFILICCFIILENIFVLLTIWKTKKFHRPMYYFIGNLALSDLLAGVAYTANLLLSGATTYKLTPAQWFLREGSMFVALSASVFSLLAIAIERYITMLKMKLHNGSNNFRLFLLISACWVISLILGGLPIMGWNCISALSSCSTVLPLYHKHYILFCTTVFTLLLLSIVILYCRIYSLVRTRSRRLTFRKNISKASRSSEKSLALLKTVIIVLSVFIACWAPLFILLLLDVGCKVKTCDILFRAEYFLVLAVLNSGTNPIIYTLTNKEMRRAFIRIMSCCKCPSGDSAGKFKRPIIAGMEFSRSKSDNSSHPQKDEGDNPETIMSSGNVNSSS

[6] = target: T4, Sphingosine 1-phosphate receptor 4 (Homo sapiens, UniProt O95977); experiment: Fluorescence dose response cell-based high throughput screening assay for agonists of the Sphingosine 1-Phosphate Receptor 4 (S1P4). [Related pubchem assays: 1509 (Primary screen.), 1523 (Confirmation screen in triplicates.)]; format: functional
T4 sequence (O95977 whole entry): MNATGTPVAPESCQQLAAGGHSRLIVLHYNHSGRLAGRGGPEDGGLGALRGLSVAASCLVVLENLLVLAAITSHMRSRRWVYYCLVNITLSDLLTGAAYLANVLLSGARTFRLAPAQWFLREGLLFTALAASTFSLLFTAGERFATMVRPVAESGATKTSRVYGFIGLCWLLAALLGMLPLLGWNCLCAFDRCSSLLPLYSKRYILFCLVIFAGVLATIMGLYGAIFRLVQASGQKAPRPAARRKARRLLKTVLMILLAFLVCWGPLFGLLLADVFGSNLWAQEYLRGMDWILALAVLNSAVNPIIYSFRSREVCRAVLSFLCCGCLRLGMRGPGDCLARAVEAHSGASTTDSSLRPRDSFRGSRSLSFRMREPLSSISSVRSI

[7] = system: Streptococcus sp. 'group A'; experiment: growth inhibition of control SK(-) GAS strain, dose response, counter-screen for streptokinase expression inhibitor project, luminescence, kanamycin, BacTiterGlo, confirmation (AID 1900); format: functional, organism-based
Streptokinase A = target: T5, Streptokinase A (Streptococcus pyogenes serotype M1, UniProt P10520); experiment: S. pyogenes streptokinase expression inhibitors, potency, dose response, plasminogen activation absorbance, OD405 (AID 1914); format: functional, Streptococcus pyogenes M1 GAS;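 note: secreted streptokinase activity via plasminogen activation per viability signal from cell pellet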
T5 sequence (P10520 whole entry): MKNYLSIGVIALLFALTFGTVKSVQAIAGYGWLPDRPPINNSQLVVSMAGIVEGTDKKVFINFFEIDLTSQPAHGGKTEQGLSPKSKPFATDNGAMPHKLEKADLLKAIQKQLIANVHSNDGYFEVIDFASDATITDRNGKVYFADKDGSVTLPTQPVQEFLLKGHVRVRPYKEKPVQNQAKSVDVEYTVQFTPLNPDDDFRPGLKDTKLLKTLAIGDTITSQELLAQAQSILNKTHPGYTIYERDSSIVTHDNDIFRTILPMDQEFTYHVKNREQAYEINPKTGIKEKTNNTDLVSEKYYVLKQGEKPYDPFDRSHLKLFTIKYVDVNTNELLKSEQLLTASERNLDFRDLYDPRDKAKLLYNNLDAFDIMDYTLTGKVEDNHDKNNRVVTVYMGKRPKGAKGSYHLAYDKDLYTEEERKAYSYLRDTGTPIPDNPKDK

Streptococcus = experiment: Group A Streptococcus viability loss, dose response, counter-screen for streptokinase expression inhibitor project, luminescence, BacTiterGlo (AID 1915); format: functional, organism-based;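 note: potency for reduction of bacterial viability or growth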
[8] = target: T6, G-protein coupled receptor 55 (Homo sapiens, UniProt Q9Y2T6); experiment: GPR55 antagonists, SAR follow-up, counter-screen for GPR35 antagonist project, imaging, image-based (AID 2397); format: functional
T6 sequence (Q9Y2T6 whole entry): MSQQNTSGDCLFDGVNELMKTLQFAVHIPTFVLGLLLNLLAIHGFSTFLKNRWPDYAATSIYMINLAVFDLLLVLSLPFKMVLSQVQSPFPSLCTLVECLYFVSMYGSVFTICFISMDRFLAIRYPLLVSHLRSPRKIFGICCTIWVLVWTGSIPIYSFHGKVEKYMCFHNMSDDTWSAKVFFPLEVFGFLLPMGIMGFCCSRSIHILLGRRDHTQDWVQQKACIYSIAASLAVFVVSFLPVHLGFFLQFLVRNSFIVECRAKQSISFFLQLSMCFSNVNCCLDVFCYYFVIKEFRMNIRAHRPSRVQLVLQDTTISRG

Melanocortin receptor 4 = Melanocortin receptor 4 (Homo sapiens, UniProt P32245); experiment: MC4R antagonist potency on cAMP, dose response, cell-based, TR-FRET, biased antagonists (AID 602298); format: functional;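 note: antagonist potency against agonist-stimulated cAMP production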
Sequence of Melanocortin receptor 4 (P32245 whole entry): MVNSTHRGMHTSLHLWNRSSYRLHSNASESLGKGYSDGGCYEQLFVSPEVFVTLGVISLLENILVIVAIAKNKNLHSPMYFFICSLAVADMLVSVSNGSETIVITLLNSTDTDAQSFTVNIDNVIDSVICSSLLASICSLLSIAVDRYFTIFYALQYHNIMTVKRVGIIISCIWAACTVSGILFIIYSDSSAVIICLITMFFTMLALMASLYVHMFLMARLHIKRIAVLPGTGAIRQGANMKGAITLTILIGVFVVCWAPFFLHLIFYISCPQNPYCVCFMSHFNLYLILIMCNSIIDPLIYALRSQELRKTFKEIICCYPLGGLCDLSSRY

[9] = nonselective inhibitors of cellular cAMP signaling, dose response, counter-screen for MC4R biased antagonist project, cell-based, TR-FRET cAMP detection (AID 602305); format: functional;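 note: U2OS cells stimulated with forskolin near its EC80 as the cAMP inducer; potency is for inhibition of forskolin-stimulated cAMP signaling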
[10] = target: T6, G-protein coupled receptor 55; experiment: GPR55 agonists via beta-arrestin recruitment, primary screen, imaging, U2OS cells, beta-arrestin-GFP redistribution (AID 1961); format: functional
Cannabinoid receptor 2 [11] = target: T7, Cannabinoid receptor 2 (Homo sapiens, UniProt P34972); experiment: SAR analysis of antagonists of the Cannabinoid Receptor 2 using an Image-Based Assay - Set 2. [Related pubchem assays (depositor defined):AID1961, AID1965]; format: functional
T7 sequence (P34972 whole entry): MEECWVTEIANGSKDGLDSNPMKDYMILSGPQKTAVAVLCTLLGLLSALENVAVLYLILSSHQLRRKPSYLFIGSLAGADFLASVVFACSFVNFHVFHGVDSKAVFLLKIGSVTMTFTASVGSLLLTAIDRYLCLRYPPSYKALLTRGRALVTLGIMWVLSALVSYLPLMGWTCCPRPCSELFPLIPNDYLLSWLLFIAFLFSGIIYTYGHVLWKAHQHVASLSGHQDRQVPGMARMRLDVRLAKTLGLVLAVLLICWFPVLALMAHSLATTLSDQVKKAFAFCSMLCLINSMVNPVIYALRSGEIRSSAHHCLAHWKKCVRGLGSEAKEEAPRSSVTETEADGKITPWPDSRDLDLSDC

Cannabinoid receptor 2 [12] = target: T7, Cannabinoid receptor 2; experiment: SAR analysis of agonists of the Cannabinoid Receptor 2 using an Image-Based Assay - Set 2. [Related pubchem assays (depositor defined):AID1961, AID1965]; format: functional
[13] = target: T8, Tyrosine-protein phosphatase non-receptor type 7 (Homo sapiens, UniProt P35236); experiment: SAR analysis of chemical inhibitors of HePTP using a Fluorescent assay - Set 2. [Related pubchem assays (depositor defined):AID1059, AID1077, AID1661, AID2085, AID521]; format: functional
T8 sequence (P35236 whole entry): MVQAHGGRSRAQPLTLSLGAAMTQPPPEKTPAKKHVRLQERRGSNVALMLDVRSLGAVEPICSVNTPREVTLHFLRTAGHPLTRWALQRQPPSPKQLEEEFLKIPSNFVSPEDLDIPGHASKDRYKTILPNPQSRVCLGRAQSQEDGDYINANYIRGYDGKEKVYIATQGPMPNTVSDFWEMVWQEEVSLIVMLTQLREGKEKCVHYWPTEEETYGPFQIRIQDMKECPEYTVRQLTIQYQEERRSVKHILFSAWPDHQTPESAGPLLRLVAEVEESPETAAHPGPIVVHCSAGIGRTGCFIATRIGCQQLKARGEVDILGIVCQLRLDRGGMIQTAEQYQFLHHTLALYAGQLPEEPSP

[14] = target: T6, G-protein coupled receptor 55; experiment: SAR analysis of selective Agonists of GPR55 using an Image-Based Assay. [Related pubchem assays (depositor defined):AID1961, AID1965]; format: functional
Cannabinoid receptor 1 = Cannabinoid receptor 1 (Homo sapiens, UniProt P21554); experiment: SAR analysis of antagonists of the Cannabinoid Receptor 1 using an Image-Based Assay. [Related pubchem assays (depositor defined):AID1961, AID1965]; format: functional
Sequence of Cannabinoid receptor 1 (P21554 whole entry): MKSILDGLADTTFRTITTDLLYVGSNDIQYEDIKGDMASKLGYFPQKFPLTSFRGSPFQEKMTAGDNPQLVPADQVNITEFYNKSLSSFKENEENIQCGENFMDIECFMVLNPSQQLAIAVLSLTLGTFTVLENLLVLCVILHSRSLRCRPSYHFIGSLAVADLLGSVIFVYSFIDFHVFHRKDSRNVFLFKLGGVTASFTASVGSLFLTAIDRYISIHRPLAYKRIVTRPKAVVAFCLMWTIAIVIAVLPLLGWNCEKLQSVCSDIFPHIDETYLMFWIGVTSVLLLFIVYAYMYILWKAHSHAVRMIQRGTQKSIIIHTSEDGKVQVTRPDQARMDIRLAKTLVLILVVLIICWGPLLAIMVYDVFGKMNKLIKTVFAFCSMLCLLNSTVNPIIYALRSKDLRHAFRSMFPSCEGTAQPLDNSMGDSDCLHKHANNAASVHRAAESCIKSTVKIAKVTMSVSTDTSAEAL

[15] = target: Dual specificity protein phosphatase 3 (Homo sapiens, UniProt P51452); experiment: SAR VHR1 Fluorescent Assay for In Vitro dose response studies Set 2. [Related pubchem assays (depositor defined):AID1654, AID1661, AID1878]; format: functional
Sequence of Dual specificity protein phosphatase 3 (P51452 whole entry): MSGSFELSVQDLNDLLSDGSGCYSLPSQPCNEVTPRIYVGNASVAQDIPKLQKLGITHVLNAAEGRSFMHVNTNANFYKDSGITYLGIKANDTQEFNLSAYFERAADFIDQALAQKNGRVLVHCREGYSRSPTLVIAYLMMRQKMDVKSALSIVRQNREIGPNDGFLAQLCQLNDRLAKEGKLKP

[16] = target: T2, Intestinal-type alkaline phosphatase; experiment: human IAP inhibitors, dose response, biochemical, luminescent, uHTS hits, set 2 (AID 488793); format: functional
[17] = target: T2, Intestinal-type alkaline phosphatase; experiment: Dose Response confirmation of uHTS hits from a small molecule inhibitors of human intestinal alkaline phosphatase via a luminescent assay. [Related pubchem assays (depositor defined):AID2544, AID2574]; format: functional
[18] = target: T1, Intestinal-type alkaline phosphatase; experiment: PubChem AID 488875; format: functional
[19] = target: T3, Alkaline phosphatase, tissue-nonspecific isozyme; experiment: inhibition of tissue-nonspecific alkaline phosphatase – biochemical, dose response (AID 488882); format: functional
Cytochrome P450 2D6 = Cytochrome P450 2D6 (Homo sapiens, UniProt P10635);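 note: CYP2D6 member of a cytochrome P450 panel assay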
Sequence of Cytochrome P450 2D6 (P10635 whole entry): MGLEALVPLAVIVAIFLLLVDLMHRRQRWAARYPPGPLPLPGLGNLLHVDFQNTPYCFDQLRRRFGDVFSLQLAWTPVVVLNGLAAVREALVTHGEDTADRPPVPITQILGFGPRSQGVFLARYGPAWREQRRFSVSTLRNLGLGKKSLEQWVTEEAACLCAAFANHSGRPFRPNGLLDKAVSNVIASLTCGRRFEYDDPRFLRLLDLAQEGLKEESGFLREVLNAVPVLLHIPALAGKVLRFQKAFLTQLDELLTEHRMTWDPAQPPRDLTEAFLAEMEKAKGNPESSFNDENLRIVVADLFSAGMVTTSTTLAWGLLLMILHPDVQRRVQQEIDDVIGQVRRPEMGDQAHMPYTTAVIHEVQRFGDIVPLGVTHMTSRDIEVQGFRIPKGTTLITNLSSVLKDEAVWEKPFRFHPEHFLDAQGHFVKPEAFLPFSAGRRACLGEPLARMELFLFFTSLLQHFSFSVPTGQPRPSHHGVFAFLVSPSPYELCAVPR

[20] = target: Nuclear receptor ROR-gamma (Homo sapiens, UniProt P51449); experiment: ROR modulator nuclear receptor reporter panel, late-stage follow-up, ROR modulator project, cell-based, luciferase reporter, panel member RORG (AID 2117)
Sequence of Nuclear receptor ROR-gamma (P51449 whole entry): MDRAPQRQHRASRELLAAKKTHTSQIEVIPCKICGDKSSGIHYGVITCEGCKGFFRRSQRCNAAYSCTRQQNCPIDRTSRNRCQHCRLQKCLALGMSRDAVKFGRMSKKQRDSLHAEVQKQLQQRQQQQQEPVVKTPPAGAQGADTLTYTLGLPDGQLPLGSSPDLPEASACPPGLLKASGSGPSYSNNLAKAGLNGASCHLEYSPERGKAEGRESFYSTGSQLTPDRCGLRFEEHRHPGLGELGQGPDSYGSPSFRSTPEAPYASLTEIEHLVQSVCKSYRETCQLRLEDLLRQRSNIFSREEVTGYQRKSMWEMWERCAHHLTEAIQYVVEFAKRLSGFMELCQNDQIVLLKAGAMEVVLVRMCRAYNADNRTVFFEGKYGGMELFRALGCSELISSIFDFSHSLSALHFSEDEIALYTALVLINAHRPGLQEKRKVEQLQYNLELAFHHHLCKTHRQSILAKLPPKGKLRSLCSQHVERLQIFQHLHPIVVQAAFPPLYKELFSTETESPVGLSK

[21] = target: Nuclear receptor ROR-alpha (Homo sapiens, UniProt P35398); experiment: ROR modulator nuclear receptor reporter panel, late-stage follow-up, ROR modulator project, cell-based, luciferase reporter, panel member RORA (AID 2117)
[22] = Fluorescence-based cell-based high throughput dose response assay for inhibitors of the interaction of nucleotide-binding oligomerization domain containing 2 (NOD2) and the receptor-interacting serine-threonine kinase 2 (RIPK2).; format: functional; settings: Homo sapiens
Beta Lactamase = Beta Lactamase (Pseudomonas aeruginosa, UniProt Q932Y6); experiment: beta-lactamase reporter inhibitor potency, dose response, artefact control for NOD2-RIPK2 interaction inhibitor project, BLA reporter cells, FRET fluorescence (AID 651552); format: functional, cell-based
Sequence of Beta Lactamase (Q932Y6 whole entry): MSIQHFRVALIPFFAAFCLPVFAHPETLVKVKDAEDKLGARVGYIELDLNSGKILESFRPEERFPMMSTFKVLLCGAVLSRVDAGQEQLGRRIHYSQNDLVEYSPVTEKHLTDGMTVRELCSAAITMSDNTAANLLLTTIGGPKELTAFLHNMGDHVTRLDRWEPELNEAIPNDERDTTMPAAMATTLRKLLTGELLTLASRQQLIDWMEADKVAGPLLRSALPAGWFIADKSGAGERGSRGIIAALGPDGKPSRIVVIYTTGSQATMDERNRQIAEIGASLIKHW

T2 sequence (P09923 whole entry): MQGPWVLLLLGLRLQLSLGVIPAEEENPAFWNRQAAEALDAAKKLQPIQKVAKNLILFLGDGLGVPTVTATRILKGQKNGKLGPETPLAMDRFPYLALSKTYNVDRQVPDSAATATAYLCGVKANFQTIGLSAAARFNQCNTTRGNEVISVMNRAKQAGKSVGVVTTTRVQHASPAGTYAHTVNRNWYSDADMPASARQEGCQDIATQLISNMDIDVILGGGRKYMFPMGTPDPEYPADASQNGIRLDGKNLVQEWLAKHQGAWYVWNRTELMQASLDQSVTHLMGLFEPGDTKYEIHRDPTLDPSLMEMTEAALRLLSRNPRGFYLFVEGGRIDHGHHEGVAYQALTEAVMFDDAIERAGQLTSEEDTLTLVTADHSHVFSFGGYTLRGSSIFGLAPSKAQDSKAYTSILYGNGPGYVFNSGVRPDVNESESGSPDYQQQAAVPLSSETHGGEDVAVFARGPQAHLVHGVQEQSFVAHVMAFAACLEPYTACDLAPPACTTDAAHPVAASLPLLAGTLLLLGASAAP
T1 sequence (P24822 whole entry): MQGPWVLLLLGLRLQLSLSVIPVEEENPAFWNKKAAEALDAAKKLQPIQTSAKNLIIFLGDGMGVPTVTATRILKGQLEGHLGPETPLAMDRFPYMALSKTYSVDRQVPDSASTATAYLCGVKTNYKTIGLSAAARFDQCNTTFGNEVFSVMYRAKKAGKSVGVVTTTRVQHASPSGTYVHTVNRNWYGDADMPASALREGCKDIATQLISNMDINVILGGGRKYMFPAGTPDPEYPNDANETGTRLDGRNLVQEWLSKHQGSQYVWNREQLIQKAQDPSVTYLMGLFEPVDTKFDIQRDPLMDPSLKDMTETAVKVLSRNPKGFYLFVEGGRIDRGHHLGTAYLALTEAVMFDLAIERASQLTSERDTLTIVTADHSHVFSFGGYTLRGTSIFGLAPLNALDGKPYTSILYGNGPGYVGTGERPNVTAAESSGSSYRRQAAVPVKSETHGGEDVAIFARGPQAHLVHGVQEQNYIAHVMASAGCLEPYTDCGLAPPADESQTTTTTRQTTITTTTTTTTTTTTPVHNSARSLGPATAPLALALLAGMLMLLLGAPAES

Cc1cccc(-n2ncc3c(NNC(=O)c4ccco4)ncnc32)c1
IC50 [1]: 66.9 µM (active) | EC50 [2]: 7.19 µM (active) | EC50 [3]: 7.33 µM (active) | EC50 [4]: 7.58 µM (active)

O=C(NCc1ccccc1)c1nc[nH]c1C(=O)N[C@@H](Cc1ccccc1)C(=O)OCc1ccccc1
EC50 [5]: > 49.8 µM (inactive) | EC50 [6]: 90.2 µM (not active)

Cc1nc(N2CCC(C)CC2)c2c(C)c(C(=O)Nc3ccccc3C(F)(F)F)sc2n1
EC50 [7]: 3.69 µM (active) | EC50 (Streptokinase A): 6.34 µM (active) | EC50 (Streptococcus): 41.5 µM (active) | IC50 [8]: 6.95 µM (active) | IC50 (Melanocortin receptor 4): > 64.6 µM (inactive) | IC50 [9]: > 64.6 µM (inactive)

COc1ccccc1/C=C/C(=O)NC(=S)Nc1ccc(S(=O)(=O)N(C)c2ccccc2)cc1
EC50 [10]: < 0.5 µM (active) | IC50 (Cannabinoid receptor 2 [11]): > 32 µM (inactive) | EC50 (Cannabinoid receptor 2 [12]): > 32 µM (inactive) | IC50 [13]: > 100 µM (inactive) | EC50 [14]: 0.114 µM (active) | IC50 (Cannabinoid receptor 1): > 32 µM (inactive) | IC50 [15]: > 100 µM (inactive)

O=C1C2C3C=CC(C3)C2C(=O)N1c1n[nH]c(-c2cccnc2)n1 (stereo not drawn)
IC50 [16]: 7.69 µM (active) | IC50 [17]: 5.18 µM (active) | EC50 [18]: > 100 µM (inactive) | IC50 [19]: > 100 µM (inactive)

CC1Cc2ccccc2N1C(=O)CN1C(=O)COc2ccccc21 (stereo not drawn)
AC50 (Cytochrome P450 2D6): inconclusive

O=S(=O)(Nc1ccc(C(O)(C(F)(F)F)C(F)(F)F)cc1)c1ccc(Cl)c2nonc12
IC50 [20]: 2.08 µM (active) | IC50 [21]: 7.28 µM (active) | IC50 [22]: 14.3 µM (inactive) | IC50 (Beta Lactamase): 41.6 µM (inactive)

From ChEMBL document CHEMBL1201862, “PubChem BioAssay data set” (2004)
